{"source": "PubChem BioAssay (NCI)", "test_in_all_cases": "inhibition of tumour cell growth, NCI panel, 48 h", "key": {"SF-539 CNS": {"system": "SF-539 CNS"}, "CAKI-1 renal": {"system": "CAKI-1 renal"}, "LOX IMVI melanoma": {"system": "LOX IMVI melanoma"}, "MCF7 breast": {"system": "MCF7 breast"}, "KM12 colon": {"system": "KM12 colon"}, "HOP-62 NSCLC": {"system": "HOP-62 NSCLC"}, "786-0 renal": {"system": "786-0 renal"}, "RXF 393 renal": {"system": "RXF 393 renal"}, "OVCAR-5 ovarian": {"system": "OVCAR-5 ovarian"}, "UO-31 renal": {"system": "UO-31 renal"}, "COLO 205 colon": {"system": "COLO 205 colon"}, "PC-3 prostate": {"system": "PC-3 prostate"}, "SNB-75 CNS": {"system": "SNB-75 CNS"}, "K-562 leukemia": {"system": "K-562 leukemia"}, "HL-60(TB) leukemia": {"system": "HL-60(TB) leukemia"}, "NCI-H522 lung": {"system": "NCI-H522 lung"}, "A498 renal": {"system": "A498 renal"}, "NCI-H23 lung": {"system": "NCI-H23 lung"}, "NCI-H460 lung": {"system": "NCI-H460 lung"}, "HCC-2998 colon": {"system": "HCC-2998 colon"}, "A549 NSCLC": {"system": "A549 NSCLC"}, "MDA-MB-231 breast": {"system": "MDA-MB-231 breast"}, "MOLT-4 leukemia": {"system": "MOLT-4 leukemia"}, "RPMI-8226 leukemia": {"system": "RPMI-8226 leukemia"}, "NCI-H226 lung": {"system": "NCI-H226 lung"}, "SF-268 CNS": {"system": "SF-268 CNS"}, "OVCAR-3 ovarian": {"system": "OVCAR-3 ovarian"}, "SK-MEL-2 melanoma": {"system": "SK-MEL-2 melanoma"}, "SF-295 CNS": {"system": "SF-295 CNS"}, "U251 CNS": {"system": "U251 CNS"}, "SNB-19 CNS": {"system": "SNB-19 CNS"}, "T-47D breast": {"system": "T-47D breast"}, "HOP-92 NSCLC": {"system": "HOP-92 NSCLC"}, "TK-10 renal": {"system": "TK-10 renal"}, "UACC-257 melanoma": {"system": "UACC-257 melanoma"}, "ACHN renal": {"system": "ACHN renal"}, "HS 578T breast": {"system": "HS 578T breast"}, "SR leukemia": {"system": "SR leukemia"}, "EKVX NSCLC": {"system": "EKVX NSCLC"}, "DU-145 prostate": {"system": "DU-145 prostate"}}, "note": "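Five concentrations, 48 hours, 96-well plates. GI50 is the concentration that inhibits growth by half. TGI: total growth inhibition.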"}
{"smiles": "CCN(CC)S(=O)(=O)c1ccc(-c2nc(C(Cl)Cl)nc3cc(C)nn23)cc1", "values": [{"measurement": "GI50", "setting": "SF-539 CNS", "result": 3.07, "unit": "µM"}, {"measurement": "TGI", "setting": "SF-539 CNS", "result": "> 100", "unit": "µM"}, {"measurement": "GI50", "setting": "CAKI-1 renal", "result": 1.96, "unit": "µM"}, {"measurement": "TGI", "setting": "CAKI-1 renal", "result": 5.57, "unit": "µM"}, {"measurement": "GI50", "setting": "LOX IMVI melanoma", "result": 6.32, "unit": "µM"}, {"measurement": "TGI", "setting": "LOX IMVI melanoma", "result": "> 100", "unit": "µM"}, {"measurement": "GI50", "setting": "MCF7 breast", "result": 2.84, "unit": "µM"}, {"measurement": "TGI", "setting": "MCF7 breast", "result": "> 100", "unit": "µM"}, {"measurement": "GI50", "setting": "KM12 colon", "result": 1.89, "unit": "µM"}, {"measurement": "TGI", "setting": "KM12 colon", "result": 5.35, "unit": "µM"}, {"measurement": "GI50", "setting": "HOP-62 NSCLC", "result": 2.2, "unit": "µM"}, {"measurement": "TGI", "setting": "HOP-62 NSCLC", "result": 7.4, "unit": "µM"}, {"measurement": "GI50", "setting": "786-0 renal", "result": "> 100", "unit": "µM"}, {"measurement": "TGI", "setting": "786-0 renal", "result": "> 100", "unit": "µM"}, {"measurement": "GI50", "setting": "RXF 393 renal", "result": 1.71, "unit": "µM"}, {"measurement": "TGI", "setting": "RXF 393 renal", "result": 5.17, "unit": "µM"}, {"measurement": "GI50", "setting": "OVCAR-5 ovarian", "result": 3.07, "unit": "µM"}, {"measurement": "TGI", "setting": "OVCAR-5 ovarian", "result": "> 100", "unit": "µM"}, {"measurement": "GI50", "setting": "UO-31 renal", "result": 2.78, "unit": "µM"}, {"measurement": "TGI", "setting": "UO-31 renal", "result": "> 100", "unit": "µM"}, {"measurement": "GI50", "setting": "COLO 205 colon", "result": 1.85, "unit": "µM"}, {"measurement": "TGI", "setting": "COLO 205 colon", "result": 4.17, "unit": "µM"}, {"measurement": "GI50", "setting": "PC-3 prostate", "result": 2.16, "unit": "µM"}, {"measurement": "TGI", "setting": "PC-3 prostate", "result": 7.41, "unit": "µM"}, {"measurement": "GI50", "setting": "SNB-75 CNS", "result": 6.91, "unit": "µM"}, {"measurement": "TGI", "setting": "SNB-75 CNS", "result": "> 100", "unit": "µM"}, {"measurement": "GI50", "setting": "K-562 leukemia", "result": 2.94, "unit": "µM"}, {"measurement": "TGI", "setting": "K-562 leukemia", "result": "> 100", "unit": "µM"}, {"measurement": "GI50", "setting": "HL-60(TB) leukemia", "result": 2.6, "unit": "µM"}, {"measurement": "TGI", "setting": "HL-60(TB) leukemia", "result": "> 100", "unit": "µM"}, {"measurement": "GI50", "setting": "NCI-H522 lung", "result": 4.55, "unit": "µM"}, {"measurement": "TGI", "setting": "NCI-H522 lung", "result": "> 100", "unit": "µM"}, {"measurement": "GI50", "setting": "A498 renal", "result": 2.22, "unit": "µM"}, {"measurement": "TGI", "setting": "A498 renal", "result": 9.24, "unit": "µM"}, {"measurement": "GI50", "setting": "NCI-H23 lung", "result": 2.01, "unit": "µM"}, {"measurement": "TGI", "setting": "NCI-H23 lung", "result": 4.96, "unit": "µM"}, {"measurement": "GI50", "setting": "NCI-H460 lung", "result": 1.85, "unit": "µM"}, {"measurement": "TGI", "setting": "NCI-H460 lung", "result": 4.47, "unit": "µM"}, {"measurement": "GI50", "setting": "HCC-2998 colon", "result": 1.7, "unit": "µM"}, {"measurement": "TGI", "setting": "HCC-2998 colon", "result": 3.47, "unit": "µM"}, {"measurement": "GI50", "setting": "A549 NSCLC", "result": 1.88, "unit": "µM"}, {"measurement": "TGI", "setting": "A549 NSCLC", "result": 4.6, "unit": "µM"}, {"measurement": "GI50", "setting": "MDA-MB-231 breast", "result": 2.55, "unit": "µM"}, {"measurement": "TGI", "setting": "MDA-MB-231 breast", "result": "> 100", "unit": "µM"}, {"measurement": "GI50", "setting": "MOLT-4 leukemia", "result": 3.32, "unit": "µM"}, {"measurement": "TGI", "setting": "MOLT-4 leukemia", "result": "> 100", "unit": "µM"}, {"measurement": "GI50", "setting": "RPMI-8226 leukemia", "result": 2.11, "unit": "µM"}, {"measurement": "TGI", "setting": "RPMI-8226 leukemia", "result": 5.72, "unit": "µM"}, {"measurement": "GI50", "setting": "NCI-H226 lung", "result": 5.36, "unit": "µM"}, {"measurement": "TGI", "setting": "NCI-H226 lung", "result": "> 100", "unit": "µM"}, {"measurement": "GI50", "setting": "SF-268 CNS", "result": 3.32, "unit": "µM"}, {"measurement": "TGI", "setting": "SF-268 CNS", "result": "> 100", "unit": "µM"}, {"measurement": "GI50", "setting": "OVCAR-3 ovarian", "result": 1.85, "unit": "µM"}, {"measurement": "TGI", "setting": "OVCAR-3 ovarian", "result": 4.33, "unit": "µM"}, {"measurement": "GI50", "setting": "SK-MEL-2 melanoma", "result": "> 100", "unit": "µM"}, {"measurement": "TGI", "setting": "SK-MEL-2 melanoma", "result": "> 100", "unit": "µM"}, {"measurement": "GI50", "setting": "SF-295 CNS", "result": 2.13, "unit": "µM"}, {"measurement": "TGI", "setting": "SF-295 CNS", "result": 6.77, "unit": "µM"}, {"measurement": "GI50", "setting": "U251 CNS", "result": 2.19, "unit": "µM"}, {"measurement": "TGI", "setting": "U251 CNS", "result": "> 100", "unit": "µM"}, {"measurement": "GI50", "setting": "SNB-19 CNS", "result": 2.9, "unit": "µM"}, {"measurement": "TGI", "setting": "SNB-19 CNS", "result": "> 100", "unit": "µM"}, {"measurement": "GI50", "setting": "T-47D breast", "result": 4.03, "unit": "µM"}, {"measurement": "TGI", "setting": "T-47D breast", "result": "> 100", "unit": "µM"}, {"measurement": "GI50", "setting": "HOP-92 NSCLC", "result": 1.9, "unit": "µM"}, {"measurement": "TGI", "setting": "HOP-92 NSCLC", "result": 5.96, "unit": "µM"}, {"measurement": "GI50", "setting": "TK-10 renal", "result": 3.03, "unit": "µM"}, {"measurement": "TGI", "setting": "TK-10 renal", "result": "> 100", "unit": "µM"}, {"measurement": "GI50", "setting": "UACC-257 melanoma", "result": 2.59, "unit": "µM"}, {"measurement": "TGI", "setting": "UACC-257 melanoma", "result": 8.66, "unit": "µM"}, {"measurement": "GI50", "setting": "ACHN renal", "result": 1.87, "unit": "µM"}, {"measurement": "TGI", "setting": "ACHN renal", "result": 5.12, "unit": "µM"}, {"measurement": "GI50", "setting": "HS 578T breast", "result": 2.4, "unit": "µM"}, {"measurement": "TGI", "setting": "HS 578T breast", "result": 7.08, "unit": "µM"}, {"measurement": "GI50", "setting": "SR leukemia", "result": 2.4, "unit": "µM"}, {"measurement": "TGI", "setting": "SR leukemia", "result": "> 100", "unit": "µM"}, {"measurement": "GI50", "setting": "EKVX NSCLC", "result": 2.05, "unit": "µM"}, {"measurement": "TGI", "setting": "EKVX NSCLC", "result": 5.35, "unit": "µM"}, {"measurement": "GI50", "setting": "DU-145 prostate", "result": 1.7, "unit": "µM"}, {"measurement": "TGI", "setting": "DU-145 prostate", "result": 4.49, "unit": "µM"}]}
